Measurements published in patent publication US20150094474A1, “AGRICULTURAL CHEMICALS” (Redx Pharma Ltd., priority 2012, published 2015).

Legend:
Type in all cases: in vivo
Settings in all cases: 20% concentration
black ants, Lasius niger = assay: Insect repellent bioassay, black ants (treated tile arena)
Protocol: (§1) A laboratory bioassay was conducted to screen 5 compounds (Icaridin (38); and 4 icaridin analogues: 39, 40a, 42a and 41) for repellent activity against houseflies, Musca domestica, black ants, Lasius niger, German cockroaches, Blattella germanica, and bedbugs, Cimex lectularius. Compounds were diluted in a mixture of ethanol and water and assessed at a 20% concentration. A mixture of ethanol/water only negative control was also included for comparative purposes. These were applied onto an aluminium foil tile, which was placed into one half of an arena. The other half of the arena contained an untreated aluminium foil tile. The number of insects present in the treated and untreated area was assessed every 5 minutes for a total of 20 minutes.
Black ants, Lasius niger, were field collected from the Cardiff area. Mixed age worker ants were used in the experiments.
(§2) Temperature was maintained between 24.2 and 24.6° C. and relative humidity ranged between 27.5% and 43.5%, throughout the experimental period.
(§3) The tested compounds were diluted in ethanol and water to a concentration of 20% (w/w: compound 20%, ethanol 40%, water 40%). The concentrates were prepared at room temperature and stirred for approximately 15 minutes using a vortex mixer. A negative control (mixture of ethanol:water 50:50) was also included in the testing for comparative purposes. Treatments were applied directly on to a non porous surface (aluminium foil), using a Gilson pipette at a rate of 0.225 ml per 225 cm^2 surface tile. A small piece of acetate was used to evenly spread the treatments across the entire surface of the tile.
(§4) For the testing against ants, cockroaches and bedbugs: A clear plastic container was used measuring approximately 34 cm long×21 cm wide×20 cm high. This was divided into two halves. The treated aluminium foil was placed in one half and the other half contained untreated foil. Food (sugar cube for black ants and bran pellet for cockroaches) and water (damp cotton wool) were placed in each half where appropriate. Twenty ants/cockroaches and ten bedbugs were placed in the centre of the arena. The number of insects in each half was assessed at 5 minute intervals for a total of 20 minutes.
(§5) Three to six replicates were performed for each treatment, for each species.

[1] = tested on: German cockroaches, Blattella germanica; assay: Insect repellent bioassay, German cockroaches (treated tile arena)
Protocol: as §1
(§6) Houseflies, Musca domestica, and German cockroaches, Blattella germanica, were obtained from a laboratory culture maintained at i2LResearch. Mixed sex and age adult insects (flies were aged 3-6 days old) were used in the experiments.
as §2, §3, §4, §5

[2] = tested on: houseflies, Musca domestica; assay: Insect repellent bioassay, houseflies (treated tile arena)
Protocol: as §1, §6, §2, §3
For the testing against houseflies: A clear plastic container was used measuring approximately 34 cm long×21 cm wide×20 cm high, with a piece of netting and lid on top. This was divided into two halves using an additional tile with a small slit measuring approximately 2.5 cm×5 cm cut at a height of […] from the base, so that the insects could freely travel between halves. A treated and untreated tile was placed either side of the dividing panel. Twenty flies were placed in the half with the treated surface. Sugar and water was placed in both halves. The number of insects crossing from the treated area into the untreated area was assessed at 5 minute intervals for a total of 20 minutes.
as §5

[3] = tested on: bedbugs, Cimex lectularius; assay: Insect repellent bioassay, bedbugs (treated tile arena)
Protocol: as §1
Bedbugs, Cimex lectularius, were obtained from a laboratory culture maintained at CimexStore (Chepstow, UK). Mixed age and sex adult bedbugs were used in the experiments (see deviation below).
as §2, §3, §4, §5

Which “insects on the treated tile” value (black ants, Lasius niger; TIME 5 mins) does the source give for CCC(C)OC(=O)N1CCCCC1CC=O (centres unmarked) [Compound 39, sec-Butyl 2-(2-oxoethyl)piperidine-1-carboxylate] here?
The value was “B (between 11% and 25% were on the treated tile)”.

And the “insects on the treated tile” value (black ants, Lasius niger; TIME 10 mins)?
Its value is “B (between 11% and 25% were on the treated tile)”.

What about the “insects on the treated tile” value (black ants, Lasius niger; TIME 15 mins) of the same compound?
Its value is “B (between 11% and 25% were on the treated tile)”.

What about the “insects on the treated tile” value (black ants, Lasius niger; TIME 20 mins) of the same compound?
Its value is “B (between 11% and 25% were on the treated tile)”.

And the “insects on the treated tile” value ([1]; TIME 5 mins)?
The value was “B (between 11% and 25% were on the treated tile)”.

And the “insects on the treated tile” value ([1]; TIME 10 mins)?
Its value is “B (between 11% and 25% were on the treated tile)”.

And the “insects on the treated tile” value ([1]; TIME 15 mins)?
Its value is “B (between 11% and 25% were on the treated tile)”.

What about the “insects on the treated tile” value ([1]; TIME 20 mins) of the same compound?
The value was “B (between 11% and 25% were on the treated tile)”.

What about the “insects moving towards the treated tile” value ([2]; TIME 5 mins) of the same compound?
The value was “B (between 11% and 25% were on the treated tile)”.

What about the “insects moving towards the treated tile” value ([2]; TIME 10 mins) of the same compound?
Its value is “C (greater than 25% were on the treated tile)”.

And the “insects moving towards the treated tile” value ([2]; TIME 15 mins)?
Its value is “C (greater than 25% were on the treated tile)”.

And the “insects moving towards the treated tile” value ([2]; TIME 20 mins)?
The value was “C (greater than 25% were on the treated tile)”.

What about the “insects on the treated tile” value ([3]; TIME 5 mins) of the same compound?
The value was “A (10% or less of the insects were on the treated tile)”.

What about the “insects on the treated tile” value ([3]; TIME 20 mins) of the same compound?
The value was “A (10% or less of the insects were on the treated tile)”.
